Results published in US20220395487A1, “RIG-I INNATE IMMUNE RECEPTOR ANTAGONISTS AND METHODS OF USING SAME” (YALE UNIVERSITY, priority 2019, published 2022).

Assays:
RIG-I [1] = molecular target: T1, RIG-I (Homo sapiens, UniProt O95786); test: NADH-coupled ATPase assay; type: biochemical; parameters: The native, full-length protein was expressed and purified using methods adapted from published protocols; SUMO (pET-SUMO vector; captured on Ni-NTA) (N, cleaved yes); made in house; host or cells: Rosetta II(DE3) Escherichia coli
T1 sequence (O95786 1-925): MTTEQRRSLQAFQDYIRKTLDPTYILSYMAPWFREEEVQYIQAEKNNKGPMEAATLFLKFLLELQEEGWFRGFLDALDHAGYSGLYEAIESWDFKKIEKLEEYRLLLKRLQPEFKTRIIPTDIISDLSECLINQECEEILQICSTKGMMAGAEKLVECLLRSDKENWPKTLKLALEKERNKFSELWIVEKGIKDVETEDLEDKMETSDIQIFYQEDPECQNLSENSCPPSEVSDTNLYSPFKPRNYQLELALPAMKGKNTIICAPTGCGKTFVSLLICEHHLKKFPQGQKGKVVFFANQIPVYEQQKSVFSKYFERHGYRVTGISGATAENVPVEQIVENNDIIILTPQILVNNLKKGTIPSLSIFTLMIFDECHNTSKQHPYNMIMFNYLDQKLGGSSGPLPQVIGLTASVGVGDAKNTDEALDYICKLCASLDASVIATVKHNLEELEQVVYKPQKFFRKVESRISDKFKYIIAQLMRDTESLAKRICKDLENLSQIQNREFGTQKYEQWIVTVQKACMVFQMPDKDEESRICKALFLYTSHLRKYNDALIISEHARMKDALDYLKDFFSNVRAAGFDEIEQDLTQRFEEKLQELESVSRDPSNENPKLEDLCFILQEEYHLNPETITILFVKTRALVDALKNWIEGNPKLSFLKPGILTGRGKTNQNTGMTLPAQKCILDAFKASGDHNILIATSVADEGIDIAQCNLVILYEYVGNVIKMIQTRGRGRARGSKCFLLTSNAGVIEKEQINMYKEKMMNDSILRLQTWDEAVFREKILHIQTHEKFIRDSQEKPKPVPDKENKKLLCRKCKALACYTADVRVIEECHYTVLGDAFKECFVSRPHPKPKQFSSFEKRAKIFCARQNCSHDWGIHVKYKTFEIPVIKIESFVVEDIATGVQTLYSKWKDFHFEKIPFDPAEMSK
Method: In this case, RIG-I was activated by a well-defined synthetic RNA hairpin duplex (SLR10-OH), which was added to a final concentration of 250 nM. A coupled assay mixture consisting of 1 mM NADH, 100 U/ml lactic dehydrogenase, 500 U/ml pyruvate kinase, 2.5 mM phosphoenol pyruvic acid was added to the sample. A 12-point serial dilution of the compound of interest was added in a DMSO vehicle such that DMSO concentrations were kept at a constant 2% over the entire drug dilution. The final concentration ranges for drug dilutions varied from compound to compound based on the potency of the small molecule in question. The dilutions covered ranges from 0 to as high as 100 μM (see association figures). Samples were incubated for at least 1 hour at RT. Reactions were initiated by the addition of a 1:1 ATP/MgCl2 mix to a final concentration of 5 mM.
The rate of ATP hydrolysis was determined indirectly by monitoring the conversion of NADH to NAD^+ that results in a loss of sample absorbance at 340 nm. Absorbance was measured over a 20 min time course using a sweeping read at 10 second intervals and a gain setting of 120 on a Biotek Synergy H1 Plate Reader. Mean kobs values were extrapolated for each time course and plotted against drug concentration, then fit to Eq. (1) to determine IC50 values. Each point was a based on two trials of three biological replicates with error bars representing the Standard deviation.

RIG-I [2] = molecular target: T1, RIG-I; test: Absorbance titration of compound with RIG-I protein; type: binding; parameters: The native, full-length protein was expressed and purified using methods adapted from published protocols; SUMO (pET-SUMO vector; captured on Ni-NTA) (N, cleaved yes); made in house; host or cells: Rosetta II(DE3) Escherichia coli
Method: FIG. 1A illustrates the structure of RIG-I ΔCARDs bound to a 14 base pair RNA duplex with ADP▪BeF3 (PDBID:5E3H). FIG. 1B illustrates representative IC50 curves for active compounds. Relative activity of a compound was calculated as a fraction of “no inhibitor” measurement and plotted vs. inhibitor concentration. Each data point represents a mean of n=3 determinations±the standard deviation. FIG. 1C illustrates a representative absorption titration spectra of RIG012 binding to RIG-I. Protein concentrations are indicated in figure legend. (Inset) Stoichiometry of RIG-I binding. Fraction bound (A) is plotted against fractional change in RIG-I concentration (ΔRIG-I). Slope=0.95±0.06. […]
Although IC50 values provide a valuable metric of association for enzyme inhibitors, it was of interest to determine directly whether the lead compound, RIG012, binds to the RIG-I protein. Binding studies were facilitated by the fact that RIG012 contains a strong chromophore that absorbs in the visible range (λmax of 470 nm), making it possible to conduct classical absorbance titrations of the compound with increasing amounts of RIG-I. Upon binding to RIG-I, the 470 nm absorbance band of RIG012 undergoes a dramatic hyperchromic shift to higher intensity values, and the magnitude of this shift is proportional to the relative fraction of bound small molecule (FIG. 1C). […]

With `CCC1(CC)C(=O)N=C2C1=C(OCc1ccccc1)C(=O)c1ccccc12` [RIG012, 4-Benzyloxy-3,3-diethyl-2H,3H,5H-benzo[g]indole-2,5-dione] the IC50 (RIG-I [1]; NADH-coupled ATPase assay, SLR10-OH activated, mean ± standard deviation, 3 measurements, read-out: IC50) was 710 ± 20 nM, the “RIG-I ATPase inhibition, result in words” value (RIG-I [1]; SAR discussion of Table 1 compounds) was “nanomolar IC50 values” and the “slope of fraction bound vs fractional change in RIG-I concentration (stoichiometry of RIG-I binding)” value (RIG-I [2]; absorbance titration at 470 nm, two independent experiments ± SD) was 0.95±0.06. The “stoichiometry of compound:RIG-I complex” value (RIG-I [2]; absorbance titration, stoichiometric binding regime) was 1:1 complex.
